Laboratory results: patent US8592426B2, “Aryl-benzocycloalkyl amide derivatives” (Hoffmann—La Roche Inc., priority 2011, dated 2013)

What was measured:
[1] = target: T1, Bradykinin-1 receptor (Homo sapiens (Human), UniProt P46663); test: Receptor binding assay (B1R Binding Assay), [3H]-Kallidin (Des Arg10, Leu9) displacement; settings: membranes from CHO-K1 cells overexpressing Bradykinin-1 receptor; 6 nM radioligand
Method: Binding assays were done with membranes from CHO-K1 cells overexpressing Bradykinin-1 receptor.
To determine non-specific binding 10 μM Lys-(Des-Arg^9)-Bradykinin (Bachem) was added. Membranes were harvested through GF/B (glass fiber filter; PerkinElmer) plates, equilibrated with 0.5% polyethylenimine, air dried at 50° C. for 2 h. Radioactivity was determined by counting in a topcounter (NXT Packard).

[2] = target: T1, Bradykinin-1 receptor; test: Calcium mobilization assay (FLIPR, Fluo-4) in GeneBLAzer Bradykinin (B1)-NFAT-bla CHO-K1 cells; type: cell-based; settings: antagonist activity; CHO-K1 cells stably overexpressing the human bradykinin 1 receptor; read-out: Ca mobilization Assay IC50
Method: Calcium Mobilization Assay
GeneBLAzer® Bradykinin (B1)-NFAT-bla CHO-K1 cells (from Invitrogen) stably overexpressing the human bradykinin 1 receptor were cultured in DMEM (high glucose) supplemented with 10% dialysed FBS, 1% NEAA (non essential amino acids) 1% penicillin/streptomycin, 1% G418 and 0.1 mg/ml zeocin.
For the assay cells were grown overnight in 384-well black clear flat bottom polystyrene plates (Costar) at 37° C. at 5% CO2. After washing with DMEM, 20 mM Hepes, 2.5 mM probenecid, 0.1% BSA (DMEM assay buffer) cells were loaded with 4 μM Fluo-4 in the same DMEM assay buffer for 2 hours at 30° C. Excess dye was removed and cells were washed with DMEM assay buffer. 384-well compound plates were prepared with DMEM assay buffer/0.5% DMSO with or without various concentrations of test compounds. Usually compounds were tested for agonist and antagonist activity.
Test compounds were added to the assay plate and agonist activity was monitored as fluorescence for 80 seconds with a FLIPR (488 nm excitation; 510-570 nm emission; Molecular Devices). After 20-30 min. of incubation at 30° C., 20 nM […] (R&D; Roche) was added and fluorescence was monitored again for 80 seconds. Increases in intracellular calcium are reported as maximum fluorescence after agonist exposure minus basal fluorescence before exposure.

T1 sequence (P46663 whole entry): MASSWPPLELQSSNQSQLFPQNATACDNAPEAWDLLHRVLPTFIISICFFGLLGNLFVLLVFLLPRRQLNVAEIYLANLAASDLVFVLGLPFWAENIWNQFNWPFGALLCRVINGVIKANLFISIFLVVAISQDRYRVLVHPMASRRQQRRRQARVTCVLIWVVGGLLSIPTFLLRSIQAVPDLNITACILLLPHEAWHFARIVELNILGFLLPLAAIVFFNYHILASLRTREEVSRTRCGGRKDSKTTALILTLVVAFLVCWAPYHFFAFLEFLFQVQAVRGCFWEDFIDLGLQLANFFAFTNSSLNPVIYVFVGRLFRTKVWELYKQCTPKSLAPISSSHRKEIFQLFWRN

SMILES | Ki [1] [nM] | IC50 [2] [nM]
Cc1nc(-c2c(F)cc(Cl)cc2-c2ccc3c(c2)CC[C@@H]3NC(=O)C2(NC(=O)c3ccnnc3)CC2)no1 [Example 27, Pyridazine-4-carboxylic acid(1-{(S)-5-[5-chloro-3-fluoro-2-(5-methyl-[1,2,4]oxadiazol-3-yl)-phenyl]-indan-1-ylcarbamoyl}-cyclopropyl)-amide] | 3.6 | 0.4
O=C(NC1(C(=O)NC2CCCc3cc(-c4cc(Cl)cc(Cl)c4OCC(F)F)ccc32)CC1)C(F)(F)F (racemic) [Example 9, 1-(2,2,2-Trifluoro-acetylamino)-cyclopropanecarboxylic acid{(rac)-6-[3,5-dichloro-2-(2,2-difluoro-ethoxy)-phenyl]-1,2,3,4-tetrahydro-naphthalen-1-yl}-amide] | 236 | 82.6
Cc1nc(-c2c(F)cc(Cl)cc2-c2ccc3c(c2)CC[C@@H]3NC(=O)C2(NC(=O)c3cncnc3)CC2)no1 [Example 25, Pyrimidine-5-carboxylic acid(1-{(S)-5-[5-chloro-3-fluoro-2-(5-methyl-[1,2,4]oxadiazol-3-yl)-phenyl]-indan-1-ylcarbamoyl}-cyclopropyl)-amide] | 3.1 | 0.1
COc1cc(C(=O)NC2(C(=O)NC3CCc4cc(-c5cc(Cl)cc(F)c5-c5nnn(C)n5)cnc43)CC2)on1 (racemic) [Example 59, 3-Methoxy-isoxazole-5-carboxylic acid(1-{(rac)-3-[5-chloro-3-fluoro-2-(2-methyl-2H-tetrazol-5-yl)-phenyl]-6,7-dihydro-5H-[1]pyrindin-7-ylcarbamoyl}-cyclopropyl)-amide] | 3.5 | 0.3
Cn1nnc(-c2c(F)cc(Cl)cc2-c2ccc3c(c2)SCC3NC(=O)C2(NC(=O)c3cncnc3)CC2)n1 (racemic) [Example 63, Pyrimidine-5-carboxylic acid(1-{(rac)-6-[5-chloro-3-fluoro-2-(2-methyl-2H-tetrazol-5-yl)-phenyl]-2,3-dihydro-benzo[b]thiophen-3-ylcarbamoyl}-cyclopropyl)-amide] | 4.8 | 0.2
Cn1nnc(-c2c(F)cc(Cl)cc2-c2ccc3c(c2)SCC3NC(=O)C2(NC(=O)C(F)(F)F)CC2)n1 (racemic) [Example 22, 1-(2,2,2-Trifluoro-acetylamino)-cyclopropanecarboxylic acid{(rac)-6-[5-chloro-3-fluoro-2-(2-methyl-2H-tetrazol-5-yl)-phenyl]-2,3-dihydro-benzo[b]thiophen-3-yl}-amide] | 6.6 | 0.8
COC(=O)c1c(Cl)cccc1-c1ccc2c(c1)CC[C@@H]2NC(=O)C1(NC(=O)C(F)(F)F)COC1 [Example 6, 2-Chloro-6-((S)-1-{[3-(2,2,2-trifluoro-acetylamino)-oxetane-3-carbonyl]-amino}-indan-5-yl)-benzoic acid methyl ester] | 381 | 455
Cc1nc(-c2c(F)cc(Cl)cc2-c2cc(F)c3c(c2)CCC3NC(=O)C2(NC(=O)C(F)(F)F)CC2)no1 (racemic) [Example 16, 1-(2,2,2-Trifluoro-acetylamino)-cyclopropanecarboxylic acid{(rac)-5-[5-chloro-3-fluoro-2-(5-methyl-[1,2,4]oxadiazol-3-yl)-phenyl]-7-fluoro-indan-1-yl}-amide] | 11 | 0.5
Cc1nc(-c2c(F)cc(Cl)cc2-c2cnc3c(c2)CCC3NC(=O)C2(NC(=O)C(F)(F)F)CC2)no1 (racemic) [Example 12, 1-(2,2,2-Trifluoro-acetylamino)-cyclopropanecarboxylic acid{(rac)-3-[5-chloro-3-fluoro-2-(5-methyl-[1,2,4]oxadiazol-3-yl)-phenyl]-6,7-dihydro-5H-[1]pyrindin-7-yl}-amide] | 4.4 | 0.5
COc1cc(C(=O)NC2(C(=O)NC3COc4cc(-c5cc(Cl)cc(F)c5-c5noc(C)n5)ccc43)CC2)on1 (racemic) [Example 48, 3-Methoxy-isoxazole-5-carboxylic acid(1-{(rac)-6-[5-chloro-3-fluoro-2-(5-methyl-[1,2,4]oxadiazol-3-yl)-phenyl]-2,3-dihydro-benzofuran-3-ylcarbamoyl}-cyclopropyl)-amide] | 23.8 | 4
Cn1nnc(-c2c(F)cc(Cl)cc2-c2ccc3c(c2)OCC3NC(=O)C2(NC(=O)C(F)(F)F)CC2)n1 (racemic) [Example 20, 1-(2,2,2-Trifluoro-acetylamino)-cyclopropanecarboxylic acid{(rac)-6-[5-chloro-3-fluoro-2-(2-methyl-2H-tetrazol-5-yl)-phenyl]-2,3-dihydro-benzofuran-3-yl}-amide] | 24 | 3.6
Cn1nnc(-c2c(F)cc(Cl)cc2-c2cnc3c(c2)CCC3NC(=O)C2(NC(=O)OC(C)(C)C)CC2)n1 (racemic) [Example 54, (1-{(rac)-3-[5-Chloro-3-fluoro-2-(2-methyl-2H-tetrazol-5-yl)-phenyl]-6,7-dihydro-5H-[1]pyrindin-7-ylcarbamoyl}-cyclopropyl)-carbamic acid tert-butyl ester] | 63.2 | 5.8
Cc1nc(-c2c(F)cc(Cl)cc2-c2ccc3c(c2)CC[C@@H]3NC(=O)C2(NC(=O)C(F)(F)F)COC2)no1 [Example 7, 3-(2,2,2-Trifluoro-acetylamino)-oxetane-3-carboxylic acid{(S)-5-[5-chloro-3-fluoro-2-(5-methyl-[1,2,4]oxadiazol-3-yl)-phenyl]-indan-1-yl}-amide] | 37.4 | 28.6
Cc1nc(-c2c(F)cc(Cl)cc2-c2cnc3c(c2)CCC3NC(=O)C2(NC(=O)c3ccnnc3)CC2)no1 (racemic) [Example 39, Pyridazine-4-carboxylic acid(1-{(rac) 3-[5-chloro-3-fluoro-2-(5-methyl-[1,2,4]oxadiazol-3-yl)-phenyl]-6,7-dihydro-5H-[1]pyrindin-7-ylcarbamoyl}-cyclopropyl)-amide] | 7.5 | 0.6
COc1ncc(C(=O)NC2(C(=O)N[C@H]3CCc4cc(-c5cc(Cl)cc(F)c5-c5noc(C)n5)ccc43)CC2)cn1 [Example 26, 2-Methoxy-pyrimidine-5-carboxylic acid(1-{(S)-5-[5-chloro-3-fluoro-2-(5-methyl-[1,2,4]oxadiazol-3-yl)-phenyl]-indan-1-ylcarbamoyl}-cyclopropyl)-amide] | 2.6 | 0.2
COc1ncc(C(=O)NC2(C(=O)NC3COc4cc(-c5cc(Cl)cc(F)c5-c5noc(C)n5)ccc43)CC2)cn1 (racemic) [Example 47, 2-Methoxy-pyrimidine-5-carboxylic acid(1-{(rac)-6-[5-chloro-3-fluoro-2-(5-methyl-[1,2,4]oxadiazol-3-yl)-phenyl]-2,3-dihydro-benzofuran-3-ylcarbamoyl}-cyclopropyl)-amide] | 5.4 | 0.2
Cc1nc(-c2c(F)cc(Cl)cc2-c2ccc3c(c2)CC[C@@H]3NC(=O)C2(NC(=O)c3ccno3)COC2)no1 [Example 51, Isoxazole-5-carboxylic acid (3-{(S)-5-[5-chloro-3-fluoro-2-(5-methyl-[1,2,4]oxadiazol-3-yl)-phenyl]-indan-1-ylcarbamoyl}-oxetan-3-yl)-amide] | 11.8 | 2.7
